Values quoted from earlier work as cited in US20250025568A1, “COMBINATION OF ANTIBODY-DRUG CONJUGATE AND PARP1 SELECTIVE INHIBITOR” (AstraZeneca UK Limited, priority 2021, published 2025).
pIC50: −log10 of the molar value.

Tests used:
BRCA2 −/− DLD-1 = conditions: 4 day compound dosing; read-out: BRCA2 −/− DLD-1 prolif 4 d IC50; cited from earlier work
WT DLD-1 = conditions: 4 day compound dosing; read-out: WT DLD-1 prolif 4 d IC50; cited from earlier work

Row | Compound | pIC50 (BRCA2 −/− DLD-1) | pIC50 (WT DLD-1)
1 | CCc1cc2ncc(CN3CCN(c4ccc(C(=O)NC)nc4Cl)CC3)cc2[nH]c1=O [Example 6, 6-chloro-5-[4-[(7-ethyl-6-oxo-5H-1,5-naphthyridin-3-yl)methyl]piperazin-1-yl]-N-methyl-pyridine-2-carboxamide] | 8.22 | < 4.52
2 | CCc1cc2ncc(CN3CCN(c4ccc(C(N)=O)nc4)CC3)cc2[nH]c1=O [Example 7, 5-[4-[(7-ethyl-6-oxo-5H-1,5-naphthyridin-3-yl)methyl]piperazin-1-yl]pyridine-2-carboxamide] | 5.38 | –
3 | CNC(=O)c1ccc(N2CCN(Cc3ccc4nc(C(F)(F)F)c(=O)[nH]c4c3)CC2)c(Cl)n1 [Example 16, 6-chloro-N-methyl-5-[4-[[3-oxo-2-(trifluoromethyl)-4H-quinoxalin-6-yl]methyl]piperazin-1-yl]pyridine-2-carboxamide] | 7.74 | < 4.66
4 | CNC(=O)c1ccc(N2CCN(Cc3ccc4nc(CC(F)F)c(=O)[nH]c4c3)CC2)c(F)n1 [Example 24, 5-[4-[[2-(2,2-difluoroethyl)-3-oxo-4H-quinoxalin-6-yl]methyl]piperazin-1-yl]-6-fluoro-N-methyl-pyridine-2-carboxamide] | 8.00 | 4.85
5 | CCc1nc2ccc(CN3CCN(c4ccc(C(=O)NC)nc4C(F)F)CC3)cc2[nH]c1=O [Example 10, 6-(difluoromethyl)-5-[4-[(2-ethyl-3-oxo-4H-quinoxalin-6-yl)methyl]piperazin-1-yl]-N-methyl-pyridine-2-carboxamide] | 8.22 | < 4.52
6 | CCc1nc2ccc(CN3CCN(c4ccc(C(=O)NC)nc4)CC3)cc2[nH]c1=O [Example 11, 5-[4-[(2-ethyl-3-oxo-4H-quinoxalin-6-yl)methyl]piperazin-1-yl]-N-methyl-pyridine-2-carboxamide] | 6.74 | < 4.52
7 | CNC(=O)c1ccc(N2CCN(Cc3ccc4nc(CC(F)(F)F)c(=O)[nH]c4c3)CC2)c(F)n1 [Example 28, 6-fluoro-N-methyl-5-(4-((3-oxo-2-(2,2,2-trifluoroethyl)-3,4-dihydroquinoxalin-6-yl)methyl)piperazin-1-yl) picolinamide] | 7.57 | < 4.52
8 | CCc1nc2ccc(CN3CCN(c4ccc(C(=O)NC)nc4C)CC3)cc2[nH]c1=O [Example 13, 5-[4-[(2-ethyl-3-oxo-4H-quinoxalin-6-yl)methyl]piperazin-1-yl]-N, 6-dimethyl-pyridine-2-carboxamide] | 8.30 | < 4.59
9 | CNC(=O)c1ccc(N2CCN(Cc3ccc4nc(C(C)(F)F)c(=O)[nH]c4c3)CC2)cn1 [Example 22, 5-[4-[[2-(1,1-difluoroethyl)-3-oxo-4H-quinoxalin-6-yl]methyl]piperazin-1-yl]-N-methyl-pyridine-2-carboxamide] | 7.92 | < 4.52
10 | CNC(=O)c1ccc(N2CCN(Cc3ccc4nc(CCF)c(=O)[nH]c4c3)CC2)c(F)n1 [Example 26, 6-fluoro-5-[4-[[2-(2-fluoroethyl)-3-oxo-4H-quinoxalin-6-yl]methyl]piperazin-1-yl]-N-methyl-pyridine-2-carboxamide] | 8.30 | 4.64
11 | CNC(=O)c1ccc(N2CCN(Cc3ccc4nc(CCF)c(=O)[nH]c4c3)CC2)cn1 [Example 25, 5-[4-[[2-(2-fluoroethyl)-3-oxo-4H-quinoxalin-6-yl]methyl]piperazin-1-yl]-N-methyl-pyridine-2-carboxamide] | – | < 4.60
12 | CCc1nc(C(=O)NC)ccc1N1CCN(Cc2ccc3nc(CC)c(=O)[nH]c3c2)CC1 [Example 8, 6-ethyl-5-[4-[(2-ethyl-3-oxo-4H-quinoxalin-6-yl)methyl]piperazin-1-yl]-N-methyl-pyridine-2-carboxamide] | – | < 4.72
13 | CCCc1nc2ccc(CN3CCN(c4ccc(C(=O)NC)nc4Cl)CC3)cc2[nH]c1=O [Example 19, 6-chloro-N-methyl-5-[4-[(3-oxo-2-propyl-4H-quinoxalin-6-yl)methyl]piperazin-1-yl]pyridine-2-carboxamide] | – | < 4.52
